Drawing on ChEMBL document CHEMBL5465560, “Selectivity Literature for EUbOPEN Chemogenomic Library” (2024), this text covers % of control, % of inhibition and % activity for eleven molecules.

The target of assay [1] is Casein kinase II subunit alpha' (Homo sapiens) (UniProt P19784). As to the kind of experiment: Selectivity interaction (Kinase panel (Z-LYTE Assay)) EUB0001632a CSNK2A2. The conditions noted are these: at 10 µM.
Assay [2] has as its target Tyrosine-protein kinase Fer (Homo sapiens) (UniProt P16591). Nature of the assay: Selectivity interaction (ActivX KiNativ screen (ex vivo kinase selectivity in human PBMCs)) EUB0001619a FER. The conditions noted are these: PBMC, at 1 µM. In kind it is cell-based.
Assay [3] deals with Protein kinase C beta type (Homo sapiens, UniProt P05771). As to the kind of experiment: Selectivity interaction (ActivX KiNativ screen (ex vivo kinase selectivity in human PBMCs)) EUB0001619a PRKCB. The assay is classed as cell-based. The conditions noted are these: PBMC, at 1 µM.
Assay [4] deals with Histamine H2 receptor (Homo sapiens) (UniProt P25021). Nature of the assay: Selectivity interaction (Eurofins CEREP Diversity Profile (receptors and ion channels)) EUB0000279b HRH2. The conditions noted are these: at 10 µM.
In assay [5] the target is Glucocorticoid receptor (Homo sapiens) (UniProt P04150). As to the kind of experiment: Selectivity interaction (Eurofins CEREP Diversity Profile (receptors and ion channels)) EUB0000279b NR3C1. To be noted: at 10 µM.
Assay [6] has as its target T1, Dual specificity mitogen-activated protein kinase kinase 4 (Homo sapiens) (UniProt P45985).
T1 sequence (whole entry): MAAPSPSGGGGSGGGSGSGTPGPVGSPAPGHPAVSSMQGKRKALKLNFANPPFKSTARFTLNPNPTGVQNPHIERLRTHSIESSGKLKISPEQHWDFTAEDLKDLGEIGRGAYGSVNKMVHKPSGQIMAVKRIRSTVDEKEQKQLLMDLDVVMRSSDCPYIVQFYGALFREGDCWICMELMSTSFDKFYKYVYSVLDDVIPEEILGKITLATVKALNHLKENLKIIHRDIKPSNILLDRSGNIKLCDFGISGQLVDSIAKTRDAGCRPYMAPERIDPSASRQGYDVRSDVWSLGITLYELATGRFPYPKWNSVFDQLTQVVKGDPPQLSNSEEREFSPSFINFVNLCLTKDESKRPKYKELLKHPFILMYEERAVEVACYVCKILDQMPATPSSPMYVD
Nature of the assay: Selectivity interaction (KinomeScan (DiscoverX)) EUB0000695a MAP2K4. The conditions noted are these: at 100 nM.

Assay [7] deals with T2, Aurora kinase A (Homo sapiens) (UniProt O14965).
T2 sequence (whole entry): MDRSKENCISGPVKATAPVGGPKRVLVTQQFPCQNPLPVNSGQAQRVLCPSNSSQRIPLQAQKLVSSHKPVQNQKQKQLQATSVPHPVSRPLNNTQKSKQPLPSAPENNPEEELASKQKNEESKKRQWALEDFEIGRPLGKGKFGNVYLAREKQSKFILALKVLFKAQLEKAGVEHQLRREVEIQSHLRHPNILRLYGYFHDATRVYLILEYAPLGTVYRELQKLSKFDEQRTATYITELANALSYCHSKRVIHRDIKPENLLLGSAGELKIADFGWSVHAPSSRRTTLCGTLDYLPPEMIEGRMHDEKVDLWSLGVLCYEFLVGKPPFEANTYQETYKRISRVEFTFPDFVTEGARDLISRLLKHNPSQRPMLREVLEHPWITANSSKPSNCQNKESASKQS
As to the kind of experiment: Selectivity interaction (ActivX KiNativ screen (kinase selectivity in THP-1 cell lysates)) EUB0000639a STK6. To be noted: lysate, at 0.01 µM. The assay is classed as subcellular.

Assay [8] addresses Phosphatidylinositol 4,5-bisphosphate 3-kinase catalytic subunit alpha isoform (Homo sapiens) (UniProt P42336). Nature of the assay: Selectivity interaction (Kinase panel (Invitrogen)) EUB0000639a PIK3CA. To be noted: at 200 nM.
Assay [9] addresses T3, Protein arginine N-methyltransferase 7 (Homo sapiens) (UniProt Q9NVM4).
T3 sequence (whole entry): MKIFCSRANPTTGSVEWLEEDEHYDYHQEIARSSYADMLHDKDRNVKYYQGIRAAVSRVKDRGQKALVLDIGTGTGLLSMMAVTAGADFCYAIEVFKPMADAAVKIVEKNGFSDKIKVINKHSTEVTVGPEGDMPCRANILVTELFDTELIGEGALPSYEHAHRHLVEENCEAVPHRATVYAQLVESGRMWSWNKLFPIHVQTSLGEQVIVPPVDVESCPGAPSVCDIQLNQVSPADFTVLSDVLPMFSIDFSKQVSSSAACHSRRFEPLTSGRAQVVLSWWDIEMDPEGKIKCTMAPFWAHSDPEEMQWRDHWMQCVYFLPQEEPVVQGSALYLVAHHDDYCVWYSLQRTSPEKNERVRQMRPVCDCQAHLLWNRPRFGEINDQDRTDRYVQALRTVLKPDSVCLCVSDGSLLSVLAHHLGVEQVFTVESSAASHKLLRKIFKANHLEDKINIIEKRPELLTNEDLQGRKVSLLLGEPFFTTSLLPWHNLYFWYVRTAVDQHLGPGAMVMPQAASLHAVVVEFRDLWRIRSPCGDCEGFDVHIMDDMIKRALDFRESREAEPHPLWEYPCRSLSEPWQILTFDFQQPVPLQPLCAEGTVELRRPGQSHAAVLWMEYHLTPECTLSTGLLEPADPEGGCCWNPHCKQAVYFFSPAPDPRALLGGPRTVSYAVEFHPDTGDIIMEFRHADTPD
The conditions noted are these: at 1 µM.

Assay [10] concerns the target Proto-oncogene tyrosine-protein kinase ROS (Homo sapiens) (UniProt P08922). As to the kind of experiment: Selectivity interaction (KinomeScan (DiscoverX)) EUB0000045b ROS1.
For assay [11], the target named is T4, STE20-like serine/threonine-protein kinase (Homo sapiens, UniProt Q9H2G2). Nature of the assay: Selectivity interaction (ProQinase) EUB0000171b SLK.
The target of assay [12] is Receptor-interacting serine/threonine-protein kinase 2 (Homo sapiens, UniProt O43353). As to the kind of experiment: Selectivity interaction (Ambit KINOMEscan and KiNATiv profiling in Jurkat cells) EUB0000090b RIPK2. To be noted: at 1 µM. In kind it is cell-based.
For assay [13], the target named is T4, STE20-like serine/threonine-protein kinase. As to the kind of experiment: Selectivity interaction (KinomeScan (DiscoverX)) EUB0000618a SLK. The conditions noted are these: at 10 µM.
Assay [14] deals with T5, Alpha-2C adrenergic receptor (Homo sapiens) (UniProt P18825).
T5 sequence (whole entry): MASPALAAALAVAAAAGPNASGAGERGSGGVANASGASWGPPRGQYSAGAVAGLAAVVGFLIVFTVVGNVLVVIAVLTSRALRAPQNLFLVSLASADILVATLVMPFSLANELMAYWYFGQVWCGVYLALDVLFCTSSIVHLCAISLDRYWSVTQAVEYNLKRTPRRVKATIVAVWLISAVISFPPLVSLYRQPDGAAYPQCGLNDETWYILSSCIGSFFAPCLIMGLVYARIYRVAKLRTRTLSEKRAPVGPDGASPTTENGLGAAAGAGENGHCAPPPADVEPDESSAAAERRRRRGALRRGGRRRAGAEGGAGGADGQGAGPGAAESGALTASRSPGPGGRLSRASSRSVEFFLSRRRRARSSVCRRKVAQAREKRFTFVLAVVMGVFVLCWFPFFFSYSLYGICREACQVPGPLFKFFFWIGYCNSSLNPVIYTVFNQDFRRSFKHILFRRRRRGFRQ
As to the kind of experiment: Selectivity interaction (GPCR panel (PDSP screen)) EUB0001079a ADRA2C. To be noted: at 10 µM.

T4 sequence (Q9H2G2 whole entry, looked up): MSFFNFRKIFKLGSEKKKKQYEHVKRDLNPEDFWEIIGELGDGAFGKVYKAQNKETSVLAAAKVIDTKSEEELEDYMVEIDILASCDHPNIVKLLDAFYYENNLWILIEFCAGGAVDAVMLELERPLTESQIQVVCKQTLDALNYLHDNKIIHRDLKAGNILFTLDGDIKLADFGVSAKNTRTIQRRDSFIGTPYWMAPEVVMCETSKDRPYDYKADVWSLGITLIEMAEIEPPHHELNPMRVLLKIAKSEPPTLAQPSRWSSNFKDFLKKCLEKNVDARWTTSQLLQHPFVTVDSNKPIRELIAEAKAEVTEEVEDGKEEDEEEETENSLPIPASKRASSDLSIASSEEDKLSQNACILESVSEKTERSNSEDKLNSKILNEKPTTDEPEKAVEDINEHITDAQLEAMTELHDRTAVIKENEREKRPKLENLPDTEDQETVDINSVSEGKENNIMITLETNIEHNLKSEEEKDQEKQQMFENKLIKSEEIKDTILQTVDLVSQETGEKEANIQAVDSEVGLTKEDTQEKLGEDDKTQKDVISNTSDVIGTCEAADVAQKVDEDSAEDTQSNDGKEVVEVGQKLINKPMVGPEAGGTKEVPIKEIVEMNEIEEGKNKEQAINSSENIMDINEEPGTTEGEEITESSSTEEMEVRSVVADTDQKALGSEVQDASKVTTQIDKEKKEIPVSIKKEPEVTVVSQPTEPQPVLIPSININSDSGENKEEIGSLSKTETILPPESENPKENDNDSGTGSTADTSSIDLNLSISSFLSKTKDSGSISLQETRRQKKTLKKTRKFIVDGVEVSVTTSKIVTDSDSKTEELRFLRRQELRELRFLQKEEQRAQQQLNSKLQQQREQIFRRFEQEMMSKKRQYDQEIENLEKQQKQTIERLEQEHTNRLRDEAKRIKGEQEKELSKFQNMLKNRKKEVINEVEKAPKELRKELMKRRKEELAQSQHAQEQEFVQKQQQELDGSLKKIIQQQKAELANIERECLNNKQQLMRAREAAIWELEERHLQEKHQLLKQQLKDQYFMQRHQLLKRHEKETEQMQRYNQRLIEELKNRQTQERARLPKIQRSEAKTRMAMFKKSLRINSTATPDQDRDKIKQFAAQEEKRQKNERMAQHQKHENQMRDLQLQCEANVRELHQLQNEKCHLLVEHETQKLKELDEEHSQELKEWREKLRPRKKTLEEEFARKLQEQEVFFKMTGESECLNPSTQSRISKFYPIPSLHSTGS
Sequence of Proto-oncogene tyrosine-protein kinase ROS (Homo sapiens) (P08922 whole entry): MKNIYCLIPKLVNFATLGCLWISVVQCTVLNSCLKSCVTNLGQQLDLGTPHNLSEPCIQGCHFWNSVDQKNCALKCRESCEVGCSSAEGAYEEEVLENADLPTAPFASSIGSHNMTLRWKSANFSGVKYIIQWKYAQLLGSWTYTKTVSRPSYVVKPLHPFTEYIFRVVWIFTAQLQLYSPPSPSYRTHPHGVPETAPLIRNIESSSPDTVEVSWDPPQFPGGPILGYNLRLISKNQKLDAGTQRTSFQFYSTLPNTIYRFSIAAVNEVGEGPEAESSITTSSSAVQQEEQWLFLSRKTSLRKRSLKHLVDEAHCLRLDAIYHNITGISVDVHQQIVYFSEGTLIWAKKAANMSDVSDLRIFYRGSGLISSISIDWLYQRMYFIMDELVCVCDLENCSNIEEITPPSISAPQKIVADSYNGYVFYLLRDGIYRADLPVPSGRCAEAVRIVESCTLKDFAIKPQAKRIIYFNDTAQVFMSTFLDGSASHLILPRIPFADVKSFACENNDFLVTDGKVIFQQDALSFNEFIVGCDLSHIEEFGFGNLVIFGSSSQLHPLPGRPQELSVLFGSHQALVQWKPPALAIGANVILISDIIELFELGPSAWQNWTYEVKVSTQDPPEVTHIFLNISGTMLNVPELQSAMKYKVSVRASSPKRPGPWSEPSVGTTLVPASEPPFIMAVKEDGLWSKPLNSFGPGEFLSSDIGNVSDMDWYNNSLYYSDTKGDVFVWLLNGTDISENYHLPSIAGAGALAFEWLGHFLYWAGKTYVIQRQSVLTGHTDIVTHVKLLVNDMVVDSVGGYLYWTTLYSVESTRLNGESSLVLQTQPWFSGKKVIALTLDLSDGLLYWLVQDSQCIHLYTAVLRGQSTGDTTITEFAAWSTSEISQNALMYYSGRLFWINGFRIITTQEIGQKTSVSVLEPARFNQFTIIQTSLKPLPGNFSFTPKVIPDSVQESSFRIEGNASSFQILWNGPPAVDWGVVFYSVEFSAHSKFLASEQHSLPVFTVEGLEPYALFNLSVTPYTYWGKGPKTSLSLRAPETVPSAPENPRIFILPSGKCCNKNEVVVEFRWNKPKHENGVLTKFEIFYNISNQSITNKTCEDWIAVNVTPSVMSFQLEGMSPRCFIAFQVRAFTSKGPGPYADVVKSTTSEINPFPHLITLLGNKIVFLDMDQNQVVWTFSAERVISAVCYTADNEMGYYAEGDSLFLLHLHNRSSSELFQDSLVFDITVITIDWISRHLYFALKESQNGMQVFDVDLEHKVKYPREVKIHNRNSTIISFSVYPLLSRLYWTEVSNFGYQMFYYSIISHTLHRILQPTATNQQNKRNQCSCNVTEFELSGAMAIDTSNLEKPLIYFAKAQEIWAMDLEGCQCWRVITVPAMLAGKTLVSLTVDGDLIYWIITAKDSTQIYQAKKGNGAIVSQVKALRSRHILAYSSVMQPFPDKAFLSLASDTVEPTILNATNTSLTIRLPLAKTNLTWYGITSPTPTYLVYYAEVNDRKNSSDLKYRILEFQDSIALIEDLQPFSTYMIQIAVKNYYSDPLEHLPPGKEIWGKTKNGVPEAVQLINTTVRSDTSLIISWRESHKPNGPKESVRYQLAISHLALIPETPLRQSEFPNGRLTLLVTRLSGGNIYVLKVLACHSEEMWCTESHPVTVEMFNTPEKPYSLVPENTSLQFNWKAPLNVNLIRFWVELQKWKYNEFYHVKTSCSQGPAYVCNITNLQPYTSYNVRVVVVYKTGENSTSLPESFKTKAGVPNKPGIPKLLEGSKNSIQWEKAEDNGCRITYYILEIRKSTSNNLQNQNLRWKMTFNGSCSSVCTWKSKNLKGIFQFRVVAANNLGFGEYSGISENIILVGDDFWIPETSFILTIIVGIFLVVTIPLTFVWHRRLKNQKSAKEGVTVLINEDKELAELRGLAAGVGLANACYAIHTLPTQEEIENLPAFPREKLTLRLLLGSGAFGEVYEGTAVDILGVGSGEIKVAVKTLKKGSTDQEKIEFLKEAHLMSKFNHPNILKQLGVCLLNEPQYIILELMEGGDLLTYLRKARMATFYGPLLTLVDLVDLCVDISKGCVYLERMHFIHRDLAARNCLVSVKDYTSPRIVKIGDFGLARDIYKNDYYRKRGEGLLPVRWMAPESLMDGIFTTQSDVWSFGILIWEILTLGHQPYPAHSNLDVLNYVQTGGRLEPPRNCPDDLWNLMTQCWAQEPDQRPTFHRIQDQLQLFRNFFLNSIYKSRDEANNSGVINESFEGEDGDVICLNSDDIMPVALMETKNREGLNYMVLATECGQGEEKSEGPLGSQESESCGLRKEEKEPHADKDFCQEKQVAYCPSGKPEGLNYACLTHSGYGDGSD
Sequence of Protein kinase C beta type (P05771 2-671 limits assumed): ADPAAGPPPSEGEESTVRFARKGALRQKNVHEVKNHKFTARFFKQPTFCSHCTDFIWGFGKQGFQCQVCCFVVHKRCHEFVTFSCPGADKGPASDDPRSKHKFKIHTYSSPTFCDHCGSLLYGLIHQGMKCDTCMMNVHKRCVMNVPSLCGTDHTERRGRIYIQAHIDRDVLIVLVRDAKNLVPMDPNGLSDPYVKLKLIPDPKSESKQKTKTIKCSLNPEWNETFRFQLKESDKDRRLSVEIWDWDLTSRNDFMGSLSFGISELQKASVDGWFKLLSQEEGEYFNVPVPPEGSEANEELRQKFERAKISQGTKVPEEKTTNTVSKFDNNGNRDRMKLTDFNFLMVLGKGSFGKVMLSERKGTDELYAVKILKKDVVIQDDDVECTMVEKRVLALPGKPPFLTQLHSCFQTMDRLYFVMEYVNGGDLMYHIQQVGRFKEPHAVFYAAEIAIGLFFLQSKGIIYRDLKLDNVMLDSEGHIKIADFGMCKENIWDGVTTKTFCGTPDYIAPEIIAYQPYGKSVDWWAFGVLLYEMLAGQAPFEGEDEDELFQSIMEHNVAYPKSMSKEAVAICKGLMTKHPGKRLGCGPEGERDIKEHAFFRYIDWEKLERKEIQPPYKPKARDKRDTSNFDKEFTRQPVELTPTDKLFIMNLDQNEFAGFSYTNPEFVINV
Sequence of Histamine H2 receptor (Homo sapiens) (P25021 whole entry): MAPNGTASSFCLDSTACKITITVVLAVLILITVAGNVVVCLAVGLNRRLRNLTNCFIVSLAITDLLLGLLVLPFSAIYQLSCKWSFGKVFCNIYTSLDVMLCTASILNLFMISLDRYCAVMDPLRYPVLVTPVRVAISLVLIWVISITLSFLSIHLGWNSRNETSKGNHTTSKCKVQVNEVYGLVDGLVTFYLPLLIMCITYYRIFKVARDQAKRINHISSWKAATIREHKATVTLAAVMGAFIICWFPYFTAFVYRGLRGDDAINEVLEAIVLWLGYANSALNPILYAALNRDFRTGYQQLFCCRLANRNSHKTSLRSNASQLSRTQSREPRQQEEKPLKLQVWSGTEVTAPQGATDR
Sequence of Casein kinase II subunit alpha' (Homo sapiens) (P19784 whole entry, looked up): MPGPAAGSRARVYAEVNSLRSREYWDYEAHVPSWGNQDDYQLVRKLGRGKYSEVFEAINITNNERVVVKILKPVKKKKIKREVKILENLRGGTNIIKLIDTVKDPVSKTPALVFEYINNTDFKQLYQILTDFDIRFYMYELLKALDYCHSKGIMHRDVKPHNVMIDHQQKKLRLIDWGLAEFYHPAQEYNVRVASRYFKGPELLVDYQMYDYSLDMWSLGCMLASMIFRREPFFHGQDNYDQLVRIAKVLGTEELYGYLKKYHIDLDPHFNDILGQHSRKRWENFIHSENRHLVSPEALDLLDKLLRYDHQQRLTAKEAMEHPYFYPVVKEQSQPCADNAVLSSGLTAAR

In the case of `Cn1cc(-n2cnc3c(NCc4nc5cc(Cl)c(Cl)cc5[nH]4)nc(N4CCOCC4)nc32)cn1`, the % of control in [1] worked out at 1.8%. On to `N#Cc1cccc(-c2c[nH]c3ncnc(N4CCOCC4)c23)c1`, for which the % of inhibition came out at 12% in assay [2] and 57% in [3].

Regarding `CC(=O)c1cc(-c2ccccc2OCC2CC2)c2ncccn12`, the values for the % of control in assay [4] and in assay [5] were 115% and 94%, respectively. For `Cc1cc(F)c(C(=O)Nc2cccc(-c3nncn3C(C)C)n2)cc1-n1cnc(C2CC2)c1`, in assay [6], the % of control was found to be 100%.

In the case of `CC[C@@H]1[C@H](F)C(=O)N[C@@H]1COc1nccc2cc(C(N)=O)c(OC)cc12` [ZIMLOVISERTIB], the % of inhibition is -3.4% in [7] and 5.29% in assay [8]. In the case of `CNCCN1CCC(c2cc(CN(C)C(=O)c3cccc(Oc4ccccc4)c3)ccn2)CC1`, the % activity in assay [9] was greater than 90%. Take `C=CC(=O)Nc1cc(-n2c(=O)ccc3cnc4ccc(-c5ccc(NS(C)(=O)=O)cc5)cc4c32)ccc1C`: the % of control in assay [10] (at 1 µM) came to 81%; in assay [10] (at 10 µM), 83%. `C=CC(=O)Nc1cccc(C(=O)Nc2ccc(Nc3cc(-c4[nH]c(SC)nc4C)ccn3)cc2)c1`: the % of control was found to be 102% in [11] (at 1 µM) and 76% in assay [11] (at 5 µM). `CN(C)C/C=C/C(=O)Nc1ccc(C(=O)N2CCCC(Nc3ncc(Cl)c(-c4c[nH]c5ccccc45)n3)C2)cc1` (stereo unspecified): in [12], the % of control worked out at 88%. `O[C@H]1CC[C@H](Nc2ncc3nc(Nc4c(F)cc(F)cc4F)n([C@H]4CCOC4)c3n2)CC1` came in with a % of control in [13] of 88%.

As to `Nc1cnc(N2CCc3cc(S(=O)(=O)Nc4c(F)cc(Cl)cc4F)cc(N4CCCC4=O)c32)nc1` [TP-020n], in assay [14], the % of inhibition was -14.3%.
